The values below come from paper PMC10829512, “Transport of metformin metabolites by guanidinium exporters of the small multidrug resistance family” (The Journal of General Physiology, 2024).

Where two headings read alike, the source gives them in different places.

Assay [1] has as its target T1, Gdx-Clo (Clostridiales bacterium oral taxon 876, UniProt U2EQ00).
T1 sequence (U2EQ00 1-105): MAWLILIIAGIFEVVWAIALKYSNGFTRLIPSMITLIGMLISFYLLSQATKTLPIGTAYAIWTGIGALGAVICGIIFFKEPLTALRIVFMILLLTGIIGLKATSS
The assay is described as follows: Tryptophan fluorescence substrate binding. Details: species or system Clostridales oral taxon 876. On the procedure:
Fluorescence emission spectra (λex = 280 nm, […]) were collected for 1 µM purified protein in assay buffer containing 200 mM NaCl, 10 mM HEPES, 10 mM bicine, 10 mM NaPO4, and 5 mM DM, with pH adjusted from 6.5 to 9.0. Substrate was added from a stock solution prepared in assay buffer. For Gdm^+ titrations, the change in fluorescence, F, as a function of substrate fit to a single site binding isotherm, ∆F=(Fmax[S]/Kd+[S]). (3)
To derive the Ka values and Kd values from the apparent Kd measured as a function of pH, we used the following equation, which uses the approximation that the protonatable E13 sidechains have equal Ka values: Kd,app=(Kd)*(1+([H^+]/Ka))*(1+([H^+]/Ka)). (5)

The target of assay [2] is Fluc-Bpe (Bordetella pertussis, UniProt Q7VYU0). The experiment in a line: SSM electrophysiology cross-reactivity control with individually reconstituted Fluc-Bpe. Type of assay: biochemical. On the procedure: SSM experiments were performed using SURFE^2R N1 instrument (Nanion Technologies). Sensors were prepared with a 1,2-diphytanoyl-sn-glycero-3-phosphocholine (DPhPC) lipid monolayer according to published protocols ([Bazzone et al., 2017]). Each sensor’s capacitance and conductance were verified before use (<80 nF capacitance, <50 nS conductance) using Nanion software protocols. Proteoliposome stock was diluted 1:25 in assay buffer (100 mM KCl, 100 mM KPO4, pH 7.5) prior to adsorption to the DPhPC monolayer. For substrate screening experiments, reference substrate samples (Gdm^+ for SMRGdx, and TPA^+ for SMRQac) were checked periodically to test for the stability of the sensor; if the current amplitude of the reference compound differed by >10% on one sensor, it indicated the desorption of liposomes, and the sensor was not used for further experiments. For every SSM electrophysiology experiment, we used the same general solution exchange protocol: after 2 s perfusion with a non-activating solution, we perfused substrate-containing buffer for 2 s and then returned to the equilibrium condition with a 4 s perfusion of non-activating buffer. […]
The adsorption of proteoliposomes to the sensor is subject to considerable variability from experiment to experiment, so the current measurements from different sensors cannot be quantitatively compared ([Barthmes et al., 2016]). […]

The target of assay [3] is Gdx-Eco (Escherichia coli, UniProt P69937). The assay is described as follows: SSM electrophysiology of Gdx-Eco proteoliposomes. In kind it is biochemical. The following applies: for Transport currents in substrate screen: 2 mM substrate; for Km: pH 7.5, mean ± SEM, read-out: Km determined using SSM electrophysiology. On the procedure: Gdx-Clo ([Kermani et al., 2018]), Gdx-Eco ([Kermani et al., 2018]), EmrE ([Kermani et al., 2022]), and Gdx-pAmi ([Martinez-Vaz et al., 2022]) construct design and purification have been described previously. […] Proteins were overexpressed in C41(DE3). Expression was induced by the addition of 0.2 mM IPTG for 3 h. Cells were lysed and extracted with 2% n-decyl-β-D-maltoside (DM) for 2 h. After pelleting insoluble cell debris, proteins were purified using cobalt affinity resin. Wash buffer contained 25 mM Tris, pH 8.5, 150 mM NaCl, and 5 mM DM. For Gdx-pAmi, NaCl concentration was increased to 500 mM NaCl. The affinity column was washed with wash buffer, then wash buffer with 10 mM imidazole, prior to elution with wash buffer with 400 mM imidazole. For Gdx-Clo and Gdx-Eco, histidine tags were cleaved with LysC (200 ng/mg of protein; 2 h at room temperature; New England Biolabs), and for all others, histidine tags were cleaved with thrombin (1 U/mg of protein, overnight at room temperature; MilliporeSigma). Proteins were further purified using a gel filtration Superdex200 column (Cytiva) equilibrated with 100 mM NaCl, 10 mM N-2-hydroxyethylpiperazine-N′-2-ethanesulfonic acid (HEPES), pH 7.5, and 5 mM DM. Purified proteins were stored at 4°C for up to 5 days before detergent binding assays. To prepare proteoliposomes for electrophysiology assays, purified protein was mixed with E. coli polar lipid extract (10 mg/ml; Avanti Polar Lipids) solubilized with 35 mM 3-[(3-cholamidopropyl)dimethylammonio]-1-propanesulfonate (CHAPS) at a protein to lipid ratio of 40 μg SMR transporter: mg lipid (1:370 protein:lipid molar ratio) prior to detergent removal by dialysis. For preparations that included Fluc-Bpe, liposomes were reconstituted with a molar ratio of 0.3 Fluc-Bpe:1 SMRGdx: 5920 lipid (1 μg Fluc-Bpe and ∼2.5 μg SMRGdx per mg lipid). For liposome transport assays, proteoliposomes were prepared similarly, except that a 2:1 mixture of 1-palmitoyl, 2-oleoylphosphatidylethanolamine (POPE) and 1-palmitoyl, 2-oleoylphosphatidylglycerol (POPG) (10 mg/ml; Avanti Polar Lipids) was used with 0.2 μg protein/mg lipid. Proteoliposomes were stored at −80°C until use.
SSM experiments were performed using SURFE^2R N1 instrument (Nanion Technologies). Sensors were prepared with a 1,2-diphytanoyl-sn-glycero-3-phosphocholine (DPhPC) lipid monolayer according to published protocols ([Bazzone et al., 2017]). Each sensor’s capacitance and conductance were verified before use (<80 nF capacitance, <50 nS conductance) using Nanion software protocols. Proteoliposome stock was diluted 1:25 in assay buffer (100 mM KCl, 100 mM KPO4, pH 7.5) prior to adsorption to the DPhPC monolayer. For substrate screening experiments, reference substrate samples (Gdm^+ for SMRGdx, and TPA^+ for SMRQac) were checked periodically to test for the stability of the sensor; if the current amplitude of the reference compound differed by >10% on one sensor, it indicated the desorption of liposomes, and the sensor was not used for further experiments. For every SSM electrophysiology experiment, we used the same general solution exchange protocol: after 2 s perfusion with a non-activating solution, we perfused substrate-containing buffer for 2 s and then returned to the equilibrium condition with a 4 s perfusion of non-activating buffer. For experiments with the S104C/A70C crosslinked variant, reducing conditions were established by the addition of 2.5 mM tris(2-carboxyethyl)phosphine (TCEP) to the activating and non-activating buffers.
We screened a series of metformin metabolites for transport using SSM electrophysiology (Fig. 2, A and B).

Setting [4] is: pH 6.5, tryptophan fluorescence, mean ± SEM, read-out: Kd (apparent) for substrate binding to Gdx-Clo.
Setting [5] is: pH 7.0, tryptophan fluorescence, mean ± SEM, read-out: Kd (apparent) for substrate binding to Gdx-Clo.
[6] abbreviates: pH 7.5, tryptophan fluorescence, mean ± SEM, read-out: Kd (apparent) for substrate binding to Gdx-Clo.
Where [7] appears, read: pH 8.0, tryptophan fluorescence, mean ± SEM, read-out: Kd (apparent) for substrate binding to Gdx-Clo.
The mark [8] stands for this setting: pH 8.5, tryptophan fluorescence, mean ± SEM, read-out: Kd (apparent) for substrate binding to Gdx-Clo.
Where [9] appears, read: pH-independent Kd, glutamates assumed to have equal Ka, read-out: Kd from fit of apparent Kd versus pH to Eq. 5.

Chain of Gdx-Eco (P69937 whole entry): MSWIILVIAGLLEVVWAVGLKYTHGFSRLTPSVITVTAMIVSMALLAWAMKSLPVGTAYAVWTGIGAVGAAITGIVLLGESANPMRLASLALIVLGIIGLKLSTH
Chain of Fluc-Bpe (Q7VYU0 whole entry): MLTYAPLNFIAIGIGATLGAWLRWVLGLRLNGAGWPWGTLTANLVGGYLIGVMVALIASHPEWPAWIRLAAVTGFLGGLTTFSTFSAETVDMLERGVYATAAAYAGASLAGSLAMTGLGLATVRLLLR

The term Km denotes the concentration of substrate that gives half-maximal velocity. As for `N=C(N)NC(N)=O` [Guanylurea, guanylurea], the Kd in assay [1] (setting [4]) was determined as 860 ± 220 µM; in assay [1] (setting [5]), 190 ± 20 µM; in assay [1] (setting [6]) it was 120 ± 20 µM; in assay [1] (setting [7]), 59 ± 1 µM; in assay [1] (setting [8]), 91 ± 16 µM; in assay [1] (pH 9.0, tryptophan fluorescence, mean ± SEM, read-out: Kd (apparent) for substrate binding to Gdx-Clo), 63 ± 5 µM. In assay [1] (setting [9]), the Kd is 70 µM. Besides, the “Response of Fluc-Bpe to substrate perfusion” value in assay [2] was “do not elicit a response”. Also, the “Transport currents in substrate screen” value in assay [3] is listed as “negative capacitive currents”. Besides, the Km in assay [3] was 850 ± 100 µM.

As for `N=C(N)N` [Gdm^+, guanidinium], the Kd came to 4300 ± 1000 µM in assay [1] (setting [4]); 1500 ± 300 µM in assay [1] (setting [5]); 960 ± 120 µM in assay [1] (setting [6]); 660 ± 80 µM in assay [1] (setting [7]); 480 ± 100 µM in assay [1] (setting [8]); 600 µM in assay [1] (setting [9]). Also, the “Response of Fluc-Bpe to substrate perfusion” value in assay [2] is “do not elicit a response”. In addition, the “Transport currents in substrate screen” value in assay [3] is listed as “negative capacitive currents”. For the same molecule, the Km in assay [3] amounted to 1700 ± 500 µM. Also, in assay [3] (substrate at fivefold Km, normalized to Fluc-Bpe fluoride current), the “Maximal velocity for Gdm+ relative to guanylurea” value is listed as “approximately twofold higher”.
